Reference: ChEMBL document CHEMBL3808308, “Synergistic potentiation of (-)-lomaiviticin A cytotoxicity by the ATR inhibitor VE-821” (Bioorg Med Chem Lett, 2016)

Assays:
K562 [1] = assay: Potentiation of 2.5 nM (-)-lomaiviticin A-induced cytotoxicity against human K562 cells assessed as combination index at 5 uM after 48 hrs by cell titer-glo luminescence assay; type: functional
K562 [2] = assay: Potentiation of 0.025 nM (-)-lomaiviticin A-induced cytotoxicity against human K562 cells assessed as combination index at 5 uM after 48 hrs by cell titer-glo luminescence assay; type: functional
K562 [3] = assay: Potentiation of 0.025 nM (-)-lomaiviticin A-induced cytotoxicity against human K562 cells assessed as fraction ratio affected at 5 uM after 24 hrs by cell titer-glo luminescence assay; type: functional
K562 [4] = assay: Potentiation of 0.025 nM (-)-lomaiviticin A-induced cytotoxicity against human K562 cells assessed as combination index at 5 uM after 24 hrs by cell titer-glo luminescence assay; type: functional
K562 [5] = assay: Potentiation of 0.5 nM (-)-lomaiviticin A-induced cytotoxicity against human K562 cells assessed as fraction ratio affected at 5 uM after 24 hrs by cell titer-glo luminescence assay; type: functional
K562 [6] = assay: Potentiation of 0.05 nM (-)-lomaiviticin A-induced cytotoxicity against human K562 cells assessed as fraction ratio affected at 5 uM after 48 hrs by cell titer-glo luminescence assay; type: functional
K562 [7] = assay: Potentiation of 5 nM (-)-lomaiviticin A-induced cytotoxicity against human K562 cells assessed as combination index at 5 uM after 24 hrs by cell titer-glo luminescence assay; type: functional
K562 [8] = assay: Potentiation of 0.05 nM (-)-lomaiviticin A-induced cytotoxicity against human K562 cells assessed as fraction ratio affected at 5 uM after 24 hrs by cell titer-glo luminescence assay; type: functional
K562 [9] = assay: Potentiation of 2.5 nM (-)-lomaiviticin A-induced cytotoxicity against human K562 cells assessed as combination index at 5 uM after 24 hrs by cell titer-glo luminescence assay; type: functional
K562 [10] = assay: Potentiation of 2.5 nM (-)-lomaiviticin A-induced cytotoxicity against human K562 cells assessed as fraction ratio affected at 5 uM after 48 hrs by cell titer-glo luminescence assay; type: functional
K562 [11] = assay: Potentiation of 0.25 nM (-)-lomaiviticin A-induced cytotoxicity against human K562 cells assessed as combination index at 5 uM after 48 hrs by cell titer-glo luminescence assay; type: functional
K562 [12] = assay: Potentiation of 0.5 nM (-)-lomaiviticin A-induced cytotoxicity against human K562 cells assessed as fraction ratio affected at 5 uM after 48 hrs by cell titer-glo luminescence assay; type: functional
K562 [13] = assay: Potentiation of 5 nM (-)-lomaiviticin A-induced cytotoxicity against human K562 cells assessed as combination index at 5 uM after 48 hrs by cell titer-glo luminescence assay; type: functional
K562 [14] = assay: Potentiation of 0.25 nM (-)-lomaiviticin A-induced cytotoxicity against human K562 cells assessed as fraction ratio affected at 5 uM after 24 hrs by cell titer-glo luminescence assay; type: functional
K562 [15] = assay: Potentiation of 5 nM (-)-lomaiviticin A-induced cytotoxicity against human K562 cells assessed as fraction ratio affected at 5 uM after 24 hrs by cell titer-glo luminescence assay; type: functional
K562 [16] = assay: Potentiation of 5 nM (-)-lomaiviticin A-induced cytotoxicity against human K562 cells assessed as fraction ratio affected at 5 uM after 48 hrs by cell titer-glo luminescence assay; type: functional
K562 [17] = assay: Cytotoxicity against human K562 cells assessed as decrease in cell viability up to 2.5 to 10 uM after 24 to 48 hrs by cell titer-glo luminescence assay; type: cell-based
K562 [18] = assay: Potentiation of 0.05 nM (-)-lomaiviticin A-induced cytotoxicity against human K562 cells assessed as combination index at 5 uM after 48 hrs by cell titer-glo luminescence assay; type: functional
K562 [19] = assay: Potentiation of 0.05 nM (-)-lomaiviticin A-induced cytotoxicity against human K562 cells assessed as combination index at 5 uM after 24 hrs by cell titer-glo luminescence assay; type: functional
K562 [20] = assay: Potentiation of 0.5 nM (-)-lomaiviticin A-induced cytotoxicity against human K562 cells assessed as combination index at 5 uM after 48 hrs by cell titer-glo luminescence assay; type: functional
K562 [21] = assay: Potentiation of 0.25 nM (-)-lomaiviticin A-induced cytotoxicity against human K562 cells assessed as combination index at 5 uM after 24 hrs by cell titer-glo luminescence assay; type: functional
K562 [22] = assay: Potentiation of 0.25 nM (-)-lomaiviticin A-induced cytotoxicity against human K562 cells assessed as fraction ratio affected at 5 uM after 48 hrs by cell titer-glo luminescence assay; type: functional
K562 [23] = assay: Potentiation of 2.5 nM (-)-lomaiviticin A-induced cytotoxicity against human K562 cells assessed as fraction ratio affected at 5 uM after 24 hrs by cell titer-glo luminescence assay; type: functional
K562 [24] = assay: Potentiation of 0.5 nM (-)-lomaiviticin A-induced cytotoxicity against human K562 cells assessed as combination index at 5 uM after 24 hrs by cell titer-glo luminescence assay; type: functional
K562 [25] = assay: Potentiation of 0.025 nM (-)-lomaiviticin A-induced cytotoxicity against human K562 cells assessed as fraction ratio affected at 5 uM after 48 hrs by cell titer-glo luminescence assay; type: functional

O=c1cc(N2CCOCC2)oc2c(-c3cccc4c3sc3ccccc34)cccc12
CI (K562 [1]): 1.147 | CI (K562 [2]): 0.4328 | Ratio (K562 [3]): 0.1436 | CI (K562 [4]): 0.0855 | Ratio (K562 [5]): 0.2584 | Ratio (K562 [6]): 0.5477 | CI (K562 [7]): 0.9596 | Ratio (K562 [8]): 0.1367 | CI (K562 [9]): 0.8596 | Ratio (K562 [10]): 0.9451 | CI (K562 [11]): 0.8337 | Ratio (K562 [12]): 0.6811 | CI (K562 [13]): 0.6686 | Ratio (K562 [14]): 0.1927 | Ratio (K562 [15]): 0.9647 | Ratio (K562 [16]): 0.9912 | Activity (K562 [17]): Non-toxic | CI (K562 [18]): 0.4461 | CI (K562 [19]): 0.1033 | CI (K562 [20]): 1.056 | CI (K562 [21]): 0.2068 | Ratio (K562 [22]): 0.5832 | Ratio (K562 [23]): 0.7163 | CI (K562 [24]): 0.3196 | Ratio (K562 [25]): 0.4881
